The values below come from ChEMBL document CHEMBL4602708, “Discovery of CNS-Penetrant Apoptosis Signal-Regulating Kinase 1 (ASK1) Inhibitors” (ACS Med Chem Lett, 2020).

Data set [1] can be described thus: Volume of distribution at steady state in rat. The data set is classed as ADME. The following applies: in vivo, read-out: Vdss.
The subject of data set [2] is P-gp (MDR1), human. Nature of the data set: Apparent permeability from apical to basolateral side in MDCK-MDR1 cells transfected with human p-gp. The data set is classed as ADME, cell-based, Canis lupus familiaris. The note with it: dog.

Turning to `COc1nn(-c2cnccn2)cc1C(=O)Nc1cccc(-c2nncn2C(C)C)n1`, the Vd in data set [1] came out at 2.3 L/kg. Besides, the Papp A→B (as a rule, the apparent permeability from the apical to the basolateral side of a cell layer) in data set [2] was 5 ×10⁻⁶ cm/s.
`C[C@H]1CCCOc2nn(C)cc2C(=O)Nc2cccc(n2)-c2nncn21`: the Vd in data set [1] is 2.7 L/kg. For the same compound, in data set [2], the Papp A→B is 1.8 ×10⁻⁶ cm/s.
